The values that follow come from patent publication US7572770B2, “Use of an interleukin 1 receptor antagonist and/or pyrrolidinedithiocarbamate for the treatment or prophylaxis of type 2 diabetes” (University of Zurich, priority 2002, dated 2009).

Broadly, the half-life is the time needed for the level to fall by half in the phase considered. Broadly, the Kd is the equilibrium constant for the complex coming apart.

The test system of series [1] is diabetes-prone Psammomys obesus. Description: Diabetes-prone Psammomys obesus on high-energy diet treated with phlorizin. The format is in vivo. From the text: Animals. Psammomys obesus of both sexes (age 2.0-3.5 months) from the diabetes-prone and diabetes-resistant lines of the Hebrew University colonies were obtained from Harlan (Jerusalem, Israel). After weaning, diabetes-prone Psammomys obesus were maintained on a low-energy diet containing 2.38 kcal/g (Koffolk, Petach Tikva, Israel) until the start of the experiments, whereas diabetes-resistant Psammomys obesus were maintained on a […] (Weizmann Institute, Rehovot, Israel) to identify animals that develop diabetes and exclude them from the study (˜30-40% of the animals in the diabetes-resistant colony). All non-fasted animals with random blood glucose concentrations <7.8 mmol/l (Glucometer Elite, Bayer Diagnostics, Elkart, Ind.) were considered nondiabetic. Diabetes-prone Psammomys obesus switched to a high-energy diet, received an injection of 0.4 g/kg phlorizin (Sigma) or solvent (40% propylene glycol) every 12 h and were killed after 8 days. Psammomys obesus were anesthetized with ketamine (Ketalar, Park-Davis, Gwent, U.K.) and exsanguinated by cardiac puncture. The pancreas was rapidly removed, and immersion-fixed in 10% phosphate-buffered formalin. The animal studies were approved by the Institutional Animal Care and Use Committee of the Hebrew University and the Hadassah Medical Organization.
Detection of IL-1β expressing β-cells. Pancreases from routine necropsies and pancreases from Psammomys obesus were immersion-fixed in formalin, followed by paraffin embedding. Sections were deparaffinized and rehydrated, and endogenous peroxidase blocked by submersion in 0.3% H2O2 for 15 min. Sections were then incubated in methanol for 4 min. After washing with PBS, cultured islets and isolated β-cells were fixed in 4% paraformaldehyde (30 min, room temperature) followed by permeabilisation with 0.5% triton X-100 (4 min, room temperature). Both tissue sections and cultured cells were double-labeled for IL-1β and insulin by 1 h exposure to 10% bovine serum albumin, followed by incubation (1 h, 37° C.) with mouse anti-IL-1β antibody (1:30 dilution, R&D Systems Inc.). Detection was performed using donkey anti-mouse Cy3 conjugated antibody (1:100 dilution, Jackson). Subsequently, specimens were incubated for 30 min at 37° C. with guinea pig anti-insulin antibody diluted 1:50 (Dako, Carpinteria, Calif.), followed by a 30 min incubation with a 1:20 dilution of fluorescein-conjugated rabbit anti-guinea pig antibody (Dako). For positive control of IL-1β staining, human mononuclear cells were isolated as described previously (37) and exposed for 2 h, 37° C. to 1 μg/ml lipopolysaccharide (Difco, Detroit, Ind.). […]

For series [2] the following is noted: in vivo; cited from earlier work.
The test system of the next series is human islets. Description: Insulin release and content of human islets. It counts as cell-based. To be noted: 33.3 mM glucose or IL-1β, 4 days. As to the method: (§1) Islet isolation and culture. Islets were isolated from pancreases of eleven organ donors at the Department of Surgery, University of Geneva Medical Center, as described (32-34). The islet purity was >95%, as judged by dithizone staining (if this degree of purity was not primarily achieved by routine isolation, islets were handpicked). […] For long-term in vitro studies, the islets were cultured on extracellular matrix-coated plates derived from bovine corneal endothelial cells (Novamed Ltd., Jerusalem, Israel), allowing the cells to attach to the dishes and spread, preserving their functional integrity (7;35). Islets were cultured in CMRL 1066 medium containing 100 U/ml penicillin, 100 μg/ml streptomycin and 10% fetal calf serum (Gibco, Gaithersburg, Md.), hereinafter referred to as culture medium. Two days after plating, when most islets were attached and began to flatten, the medium was changed to culture medium containing 5.5, 11.1 or 33.3 mM glucose. In some experiments, islets were additionally cultured with 2 ng/ml recombinant human IL-1β, 1000 U/ml recombinant human IFNγ (ReproTech EC Ltd, London, UK), 500 ng/ml IL-1β receptor antagonist (IL-1Ra) (R&D Systems Inc., Minneapolis, Minn.), 1 ng/ml membrane bound Fas-ligand (FasL) (36) (upstate biotechnology, Lake Placid, N.Y.) or with 100 μM pyrrolidinedithiocarbamate (PDTC; Sigma; 2 h per 2 d of culture).
Insulin release and content. To determine acute insulin release in response to glucose stimulation, islets were washed in RPMI 1640 medium with 10% FCS and containing 3.3 mM glucose and pre-incubated for 1 h in the same medium. The medium was then discarded and replaced with fresh medium containing 3.3 mM glucose for 1 h for basal secretion, followed by an additional 1 h incubation in medium containing 16.7 mM glucose. Incubates were collected and frozen for insulin assays. […] Insulin was determined by a human insulin RIA kit (CIS bio international, Gif-Sur-Yvette, France).

Another series deals with T1, type II IL-1R (Homo sapiens, UniProt P27930).
T1 sequence (P27930 14-398): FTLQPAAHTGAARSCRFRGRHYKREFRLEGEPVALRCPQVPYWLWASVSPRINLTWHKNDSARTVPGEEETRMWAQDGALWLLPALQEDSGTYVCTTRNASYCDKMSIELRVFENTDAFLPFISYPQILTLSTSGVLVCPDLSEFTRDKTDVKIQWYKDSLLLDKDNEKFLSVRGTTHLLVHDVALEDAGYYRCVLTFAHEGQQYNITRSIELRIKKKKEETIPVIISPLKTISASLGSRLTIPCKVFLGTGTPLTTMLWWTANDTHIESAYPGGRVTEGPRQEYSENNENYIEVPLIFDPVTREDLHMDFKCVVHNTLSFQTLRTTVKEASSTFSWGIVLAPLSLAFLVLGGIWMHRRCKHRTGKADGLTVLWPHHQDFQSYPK
To be noted: read-out: Kd, binding to type II IL-1R; cited from earlier work.

A further series deals with iNOS. Description: iNOS expression in human islets. The format is cell-based. To be noted: 33 mM glucose or IL-1β alone, 44 hours. On the procedure: Western blot analysis. Islets were cultured in a culture medium in non-adherent plastic dishes. One day after isolation, the medium was changed and groups of 200 islets were incubated for 44 hours in culture medium containing 5.5 or 33.3 mM glucose without or with 2 ng/ml IL-1β or 500 ng/ml IL-1Ra. At the end of the incubations, islets were washed in PBS, suspended in 50 μl sample buffer containing 125 mM Tris-HCl, pH 6.8, 4% SDS, 10% glycerol, 0.3% bromphenol blue, 1.8% β-mercaptoethanol and boiled for 5 min. Equivalent amounts of each treatment group were run on 15% SDS polyacrylamide gels. […] Intensity of bands was analyzed using Multianalyst™ (Bio Rad, Laboratories inc., Hercules, Calif.).
RNA extraction, RT-PCR and sequencing of RT-PCR product. […] The conditions of the PCR amplification for IL-1β and Fas were: denaturation 30 seconds at 94° C., annealing 30 seconds at 60° C. and elongation 30 seconds at 72° C., followed for real time PCR by quantification 5 seconds at 80° C., 45 cycles. […] For quantitative analysis, we used the Light Cycler quantitative PCR system (Roche, Basel, Switzerland) and performed quantitative PCR with a commercial kit (Light Cycler-DNA Master SYBR Green I; Roche). […]

In another series the test system is human islets β-cells. Description: β-cell apoptosis (TUNEL) and necrosis (propidium iodide) in human islets. The format is cell-based. To be noted: 33 mM glucose + exogenous FasL. As to the method:
as §1
β-cell apoptosis. The free 3-OH strand breaks resulting from DNA degradation were detected by the terminal deoxynucleotidyl transferase-mediated dUTP nick-end labeling (TUNEL) technique (38). After washing with PBS, cultured islets were fixed in 4% paraformaldehyde (30 min, room temperature) followed by permeabilisation with 0.5% triton X-100 (4 min, room temperature). The TUNEL assay was performed according to the manufacturer's instructions (In Situ Cell Death Detection Kit, AP; Boehringer Mannheim, Germany). […] The samples were immediately evaluated by fluorescence microscopy for positively stained […] nuclei.

Where [3] appears, read: high-energy diet 8 days, 0.4 g/kg phlorizin every 12 h.

Take `O=C(CCc1ccc(O)cc1)c1c(O)cc(O)cc1O[C@@H]1O[C@H](CO)[C@@H](O)[C@H](O)[C@H]1O` [phlorizin]: in series [1] (setting [3]), the “IL-1β expression in β-cells” value is reported as “prevented IL-1β expression”, the “blood glucose (in words)” value is listed as “Normalization of blood glucose” and the “insulin stores of islets” value is “restored insulin stores”. The same molecule gave a blood glucose in series [1] (high-energy diet for 8 days with injections of phlorizin) of 5.6 mM.
Regarding anakinra, the half-life in series [2] is 4 to 6 h.
As for Interleukin-1β [IL-1β], in the series on human islets, the “acute glucose-stimulated insulin release after chronic exposure” value was “abolished acute glucose-stimulated insulin release”. Also, the Kd with type II IL-1R is 0.3 to 2 nM. Further, the “iNOS mRNA or protein expression” value with iNOS is recorded as “Neither 33 mM glucose nor IL-1β alone induced iNOS mRNA”.

B1: FasL: membrane bound Fas-ligand (protein, UniProt P48023 1-281, looked up)
chain: MQQPFNYPYPQIYWVDSSASSPWAPPGTVLPCPTSVPRRPGQRRPPPPPPPPPLPPPPPPPPLPPLPLPPLKKRGNHSTGLCLLVMFFMVLVALVGLGLGMFQLFHLQKELAELRESTSQMHTASSLEKQIGHPSPPPEKKELRKVAHLTGKSNSRSMPLEWEDTYGIVLLSGVKYKKGGLVINETGLYFVYSKVYFRGQSCNNLPLSHKVYMRNSKYPQDLVMMEGKMMSYCTTGQMWARSSYLGAVFNLTSADHLYVNVSELSLVNFEESQTFFGLYKL
modifications: full-length
B1: the “increase of TUNEL-positive β-cells compared to control at 5.5 mM glucose” value in the series with human islets β-cells was 3.0+/−0.4 fold.
